Results reported in article PMC12073402, “A Selective MAP3K1 Inhibitor Facilitates Discovery of NPM1 as a Member of the Network” (Molecules, 2025).
Read-outs that look alike come from different tables or passages of the source.

How the values were obtained:
[1] = Pharmacokinetic studies, oral and intravenous dosing; format: in vivo, CD1 mice; details: for MRT inf: read-out: MRT 0-∞
Experimental: Next, we conducted pharmacokinetic (PK) studies with 51-106. Briefly, mice were dosed either intravenously (IV) or orally with 10 mg/kg of 51-106 and sampled at 0.083, 0.25, 0.5, 1, 2, 4, 8, and 24 h. […] This was accomplished by strategic placement of fluorine atoms at metabolically vulnerable sites on the molecule.
Pharmacokinetic studies (10 mg/kg oral and intravenous dosing) were performed following previously reported methods. Sample analysis was performed by liquid chromatography–tandem mass spectrometry (SCIEX QTRAP 4000 LC-MS/MS System). The pharmacokinetic parameters were determined using non-compartmental analyses module of WinNonlin 1.5.

[2] = system: NPM1 phosphorylation; assay: TMT phosphoproteomics of PANC-1 cells; format: cell-based; details: 10 μM, 2 h, versus DMSO
Experimental: Next, we wanted to assess the effects of 51-106 on the early phosphorylation events associated with transient MAP3K1 inhibition. To this end, we conducted global proteomic and phosphoproteomic analyses of PANC-1 cells treated with varying doses of 51-106 (10, 5, 2.5, 1.25, 0.625, and 0 μM) for 2 h using a tandem mass tag (TMT)-based multiplexing strategy (Figure 4). Across all conditions, a total of 7028 proteins and 22,843 phosphosites were quantified and successfully mapped to known protein sequences. Significance cutoffs of >0.32 or <−0.32 log2FC of 51-106 compared to DMSO and FDR < 0.05 were used to analyze differences in total and phosphorylated protein levels between treatment and control samples using RokaiXplorer (Supplementary Figure S3a).
PANC-1 (1 × 10^7) cells were seeded into T125 flasks (FB012939, Fisher Scientific) and allowed to attach overnight in a humidified 5% CO2 incubator at 37 °C. Drug working solutions were prepared from 10 mM DMSO stocks. 51-106 was added in 4 dilutions, in triplicates. […]
Global proteome and phosphopeptide-enriched fractions were analyzed on an Orbitrap Eclipse mass spectrometer using UltiMate 3000 RSLC nano system for online separation of peptides in trap and elute configuration (Thermo Scientific, San Jose, CA, USA). […] Survey MS scans were recorded in Orbitrap mass analyzer with 375 to 1500 m/z scan range at 120,000 resolution. […]

[3] = mouse, in vivo, CD1 mice, 10 mg/kg, Intravenous
[4] = mouse, in vivo, CD1 mice, 10 mg/kg, Oral

Cn1cc(-c2cnc3ccc(NC(=O)Nc4ccc(F)c(C(F)(F)F)c4)cc3n2)cn1 [51-106, 1-(4-Fluoro-3-(trifluoromethyl)phenyl)-3-(3-(1-methyl-1H-pyrazol-4-yl)quinoxalin-6-yl)urea]
improvement of oral bioavailability ([1]; 51-106 compared to analog 84): ~ 3.5 fold | improvement of t1/2 in mice ([1]; 51-106 compared to analog 84): ~ 1.4 fold | bioavailability ([1]; CD1, mouse, in vivo, po, 10 mg/kg, CD1 mice, 10 mg/kg, Oral, read-out: Bioavailability (%F)): 62.3% | Bioavailability (%F) ([1]; CD1 mice, 10 mg/kg, Oral): ~62% | AUC(0-inf) [1, 3]: 9120 ± 755 ng·h/mL | AUC(0-t) [1, 3]: 8960 ± 812 ng·h/mL | Cmax [1, 3]: 4380 ± 447 ng/mL | half-life [1, 3]: 1.7 ± 0.3 h | MRT inf [1, 3]: 2.2 ± 0.3 h | Vd ([1]; mouse, in vivo, CD1 mice, 10 mg/kg, Intravenous, read-out: Vss): 2.5 ± 0.3 L/kg | AUC(0-inf) [1, 4]: 5680 ± 1930 ng·h/mL | AUC(0-t) [1, 4]: 4580 ± 2500 ng·h/mL | Cmax [1, 4]: 689 ± 190 ng/mL | Tmax [1, 4]: 2.7 h | half-life [1, 4]: 3.5 h | MRT inf [1, 4]: 6.4 ± 1.5 h | decrease in NPM1 S227 phosphorylation [2]: 3.5 fold
